# Assay results as given in ChEMBL document CHEMBL3046330, “Synthesis and biological activity of hydrazidehydrazones and their corresponding 3-acetyl-2,5-disubstituted-2,3-dihydro-1,3,4-oxadiazoles” (Med Chem Res, 2012).
# Calls of active or inactive are those of the source. No cut-off for these calls is given here.
# Key:
# [1] = system: RAW264.7; test: Cytotoxicity against Mus musculus (mouse) RAW264.7 cells up to 25 ug/ml; format: cell-based
# [2] = Cytotoxicity against Sus scrofa (pig) LLC-PK11 cells assessed as cell viability up to 25 ug/ml after 48 hr by neutral red assay; format: cell-based; conditions: llc-pk11, 48 h
# [3] = system: SW1353; test: Inhibition of PMA-induced NFkappaB activity in Homo sapiens (human) SW1353 cells up to 25 ug/ml incubated for 30 min followed by PMA induction for 8 hr by luciferase reporter gene assay; format: cell-based
# [4] = system: Botrytis cinerea; test: Antifungal activity against Botryotinia fuckeliana at 0.3 to 30 uM after 48 to 72 hr by broth microdilution method; format: functional, organism-based
# [5] = system: Candida albicans; test: Antifungal activity against Candida albicans ATCC 90028 after 24 hr by NCCLS broth microdilution method; format: functional; conditions: ATCC 90028, 24 h
# [6] = system: SK-OV-3; test: Cytotoxicity against Homo sapiens (human) SKOV3 cells assessed as cell viability up to 25 ug/ml after 48 hr by neutral red assay; format: functional, cell-based
# [7] = system: Pichia kudriavzevii; test: Antifungal activity against Pichia kudriavzevii NRRL Y-7179 after 24 hr by NCCLS broth microdilution method; format: functional; conditions: NRRL Y-7179, 24 h
# [8] = system: Candida albicans; test: Antifungal activity against Candida albicans clinical isolate after 24 hr by NCCLS broth microdilution method; format: functional
# [9] = system: Phomopsis obscurans; test: Antifungal activity against Phomopsis obscurans assessed as growth inhibition at 30 uM after 144 hr by broth microdilution method; format: functional; conditions: Paraphomopsis obscurans, read-out: GI
# [10] = molecular target: T1, Nitric oxide synthase, inducible (Mus musculus) (UniProt P29477); test: Inhibition of iNOS in Mus musculus (mouse) RAW264.7 cells assessed as inhibition of LPS-induced nitrite production up to 25 ug/ml incubated for 30 min prior to LPS challenge measured after 24 hr by Griess assay relative to vehicle-treated control; format: cell-based
# T1 sequence (whole entry): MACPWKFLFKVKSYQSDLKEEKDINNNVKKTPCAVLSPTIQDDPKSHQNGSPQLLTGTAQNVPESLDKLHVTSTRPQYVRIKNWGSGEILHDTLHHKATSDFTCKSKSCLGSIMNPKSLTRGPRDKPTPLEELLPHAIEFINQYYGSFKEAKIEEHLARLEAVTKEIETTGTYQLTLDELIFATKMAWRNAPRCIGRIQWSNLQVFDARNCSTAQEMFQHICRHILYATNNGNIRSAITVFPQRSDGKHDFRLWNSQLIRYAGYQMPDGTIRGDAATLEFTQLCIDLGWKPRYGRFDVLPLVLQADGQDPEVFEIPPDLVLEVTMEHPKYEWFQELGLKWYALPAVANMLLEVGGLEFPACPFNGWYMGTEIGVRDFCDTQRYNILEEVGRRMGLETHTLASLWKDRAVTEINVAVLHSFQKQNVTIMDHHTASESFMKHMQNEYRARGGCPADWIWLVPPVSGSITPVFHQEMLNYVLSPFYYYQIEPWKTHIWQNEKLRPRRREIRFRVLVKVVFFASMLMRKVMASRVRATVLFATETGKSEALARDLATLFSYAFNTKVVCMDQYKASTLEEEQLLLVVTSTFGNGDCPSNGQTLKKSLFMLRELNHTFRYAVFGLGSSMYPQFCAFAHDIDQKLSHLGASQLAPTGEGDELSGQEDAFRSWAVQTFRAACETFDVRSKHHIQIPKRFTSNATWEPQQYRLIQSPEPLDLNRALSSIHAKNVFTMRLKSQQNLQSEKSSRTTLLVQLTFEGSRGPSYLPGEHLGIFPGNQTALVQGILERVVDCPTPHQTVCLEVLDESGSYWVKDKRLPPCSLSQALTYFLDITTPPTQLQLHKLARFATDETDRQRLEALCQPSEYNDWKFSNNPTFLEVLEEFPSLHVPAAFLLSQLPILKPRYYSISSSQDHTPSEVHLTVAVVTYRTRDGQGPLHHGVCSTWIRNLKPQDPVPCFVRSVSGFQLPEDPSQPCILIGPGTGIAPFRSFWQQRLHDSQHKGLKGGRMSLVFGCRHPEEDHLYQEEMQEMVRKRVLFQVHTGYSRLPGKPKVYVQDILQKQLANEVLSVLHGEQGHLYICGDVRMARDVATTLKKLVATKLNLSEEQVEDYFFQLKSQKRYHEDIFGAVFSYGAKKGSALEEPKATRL
# [11] = system: Nakaseomyces glabratus; test: Antifungal activity against Candida glabrata clinical isolate after 24 hr by NCCLS broth microdilution method; format: functional
# [12] = system: Candida tropicalis; test: Antifungal activity against Candida tropicalis NRRL Y-12968 at 2000 ug/ml by agar diffusion method; format: functional; conditions: read-out: IZ
# [13] = system: Colletotrichum fragariae; test: Antifungal activity against Colletotrichum fragariae at 0.3 to 30 uM after 48 to 72 hr by broth microdilution method; format: functional, organism-based
# [14] = system: Candida parapsilosis; test: Antifungal activity against Candida parapsilosis NRRL Y-12696 after 24 hr by NCCLS broth microdilution method; format: functional; conditions: Lodderomyces parapsilosis, NRRL Y-12696, 24 h
# [15] = system: HL-60; test: Cytotoxicity against Homo sapiens (human) HL60 cells; format: cell-based
# [16] = system: HL-60; test: Antioxidant activity in PMA-stimulated Homo sapiens (human) HL60 cells assessed as inhibition of intracellular ROS generation up to 25 ug/ml incubated for 30 min prior to PMA stimulation measured after 30 min by DCFH-DA assay relative to vehicle-treated control; format: functional, cell-based
# [17] = molecular target: Transcription factor Sp1 (Homo sapiens, UniProt P08047); test: Inhibition of Sp1 (unknown origin) up to 25 ug/ml by luciferase reporter gene assay
# Sequence of Transcription factor Sp1 (P08047 whole entry): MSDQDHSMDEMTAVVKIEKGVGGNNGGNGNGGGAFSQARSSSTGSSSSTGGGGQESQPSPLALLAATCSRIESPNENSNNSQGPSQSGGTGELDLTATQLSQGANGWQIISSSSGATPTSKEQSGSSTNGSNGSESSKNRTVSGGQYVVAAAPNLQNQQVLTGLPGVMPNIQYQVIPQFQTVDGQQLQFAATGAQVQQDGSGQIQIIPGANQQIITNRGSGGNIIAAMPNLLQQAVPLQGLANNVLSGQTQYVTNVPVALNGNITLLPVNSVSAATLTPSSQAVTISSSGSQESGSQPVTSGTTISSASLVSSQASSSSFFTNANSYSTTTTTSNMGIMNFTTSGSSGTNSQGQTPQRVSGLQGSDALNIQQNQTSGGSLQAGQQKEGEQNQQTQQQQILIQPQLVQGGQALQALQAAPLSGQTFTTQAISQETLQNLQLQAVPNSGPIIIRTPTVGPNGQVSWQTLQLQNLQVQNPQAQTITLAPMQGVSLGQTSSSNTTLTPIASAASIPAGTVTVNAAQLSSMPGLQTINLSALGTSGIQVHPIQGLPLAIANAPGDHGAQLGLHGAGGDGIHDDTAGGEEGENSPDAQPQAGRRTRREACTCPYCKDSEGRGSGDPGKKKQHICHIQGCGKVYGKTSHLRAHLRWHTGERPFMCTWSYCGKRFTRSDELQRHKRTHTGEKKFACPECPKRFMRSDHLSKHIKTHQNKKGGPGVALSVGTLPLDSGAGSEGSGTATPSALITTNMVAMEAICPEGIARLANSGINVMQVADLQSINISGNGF
# [18] = system: Candida tropicalis; test: Antifungal activity against Candida tropicalis NRRL Y-12968 after 24 hr by NCCLS broth microdilution method; format: functional; conditions: NRRL Y-12968, 24 h
# [19] = system: Cyberlindnera jadinii; test: Antifungal activity against Cyberlindnera jadinii NRRL Y-900 after 24 hr by NCCLS broth microdilution method; format: functional; conditions: Williopsis jadinii, NRRL Y-900, 24 h
# [20] = system: KB; test: Cytotoxicity against Homo sapiens (human) KB cells assessed as cell viability up to 25 ug/ml after 48 hr by neutral red assay; format: functional, cell-based
# [21] = system: Colletotrichum acutatum; test: Antifungal activity against Colletotrichum acutatum assessed as growth inhibition at 30 uM after 72 hr by broth microdilution method; format: functional; conditions: read-out: GI
# [22] = system: Vero; test: Cytotoxicity against Chlorocebus aethiops (African green monkey) Vero cells assessed as cell viability up to 25 ug/ml after 48 hr by neutral red assay; format: cell-based; conditions: chlorocebus sabaeus
# [23] = system: Colletotrichum gloeosporioides; test: Antifungal activity against Colletotrichum gloeosporioides assessed as growth inhibition at 30 uM after 72 hr by broth microdilution method; format: functional; conditions: read-out: GI
# [24] = system: Fusarium oxysporum; test: Antifungal activity against Fusarium oxysporum assessed as growth inhibition at 30 uM after 72 hr by broth microdilution method; format: functional; conditions: read-out: GI
# [25] = system: Candida albicans; test: Antifungal activity against Candida albicans clinical isolate at 2000 ug/ml by agar diffusion method; format: functional; conditions: read-out: IZ
# [26] = system: SK-MEL; test: Cytotoxicity against Homo sapiens (human) SK-MEL cells assessed as cell viability up to 25 ug/ml after 48 hr by neutral red assay; format: functional, cell-based
# [27] = system: Candida albicans; test: Antifungal activity against Candida albicans NRRL Y-12983 after 24 hr by NCCLS broth microdilution method; format: functional; conditions: NRRL Y-12983, 24 h
# [28] = system: BT-549; test: Cytotoxicity against Homo sapiens (human) BT549 cells assessed as cell viability up to 25 ug/ml after 48 hr by neutral red assay; format: functional, cell-based
smiles,measurement,setting,value
CC(=O)N1N=C(c2ccc(F)cc2)OC1c1ccc(Br)s1 (stereo not drawn),Activity,[1],Non-toxic
same,Activity,[2],Not Active
same,inhibition,[3],inactive
same,Activity,[4],inactive
same,MIC,[5],> 1000 µg/mL
same,Activity,[6],inactive
same,MIC,[7],> 1000 µg/mL
same,MIC,[8],> 1000 µg/mL
same,inhibition of growth at 30 µM,[9],65%
same,inhibition,[10],inactive
same,MIC,[11],> 1000 µg/mL
same,zone of inhibition at 2000 µg/mL,[12],9 mm
same,Activity,[13],inactive
same,MIC,[14],> 1000 µg/mL
same,IC50,[15],5.9 µg/mL
same,inhibition,[16],inactive
same,inhibition (INH),[17],Not Active
same,MIC,[18],> 1000 µg/mL
same,MIC,[19],> 1000 µg/mL
same,Activity,[20],inactive
same,inhibition of growth at 30 µM,[21],49%
same,Activity,[22],Not Active
same,inhibition of growth at 30 µM,[23],66%
same,inhibition of growth at 30 µM,[24],67%
same,zone of inhibition at 2000 µg/mL,[25],9 mm
same,Activity,[26],inactive
same,MIC,[27],> 1000 µg/mL
same,Activity,[28],inactive
